Measured values as given in patent US20050209251A1, “Substituted pyrazolo-pyrimidine-4-ones” (priority 2002, published 2005).
Read-outs that look alike come from different tables or passages of the source.

What was measured:
weeds [1] = assay: Post-emergence test (herbicidal action); assay type: in vivo; conditions: test plants of 5-15 cm sprayed, rated after three weeks
Experimental: Post-Emergence Test (Herbicidal Action)
(§1) To produce a suitable preparation of active compound, 1 part by weight of active compound is mixed with the stated amount of solvent, the stated amount of emulsifier is added and the concentrate is diluted with water to the desired concentration.
Test plants of a height of 5-15 cm are sprayed with the preparation of active compound such that the particular amounts of active compound desired are applied per unit area. The concentration of the spray liquor is chosen such that the particular amounts of active compound desired are applied in 1000 l of water/ha.
(§2) After three weeks, the degree of damage to the plants is rated in % damage in comparison to the development of the untreated control.

[2] = logP determination by reversed-phase HPLC (EEC Directive 79/831 Annex V.A8), acidic range; assay type: physicochemical
Experimental: The logP values given in the table were determined in accordance with EEC Directive 79/831 Annex V.A8 by HPLC (High Performance Liquid Chromatography) using a reversed-phase column (C 18). Temperature: 43° C.
(a) Mobile phases for the determination in the acidic range: 0.1% phosphoric acid, acetonitrile; linear gradient from 10% acetonitrile to 90% acetonitrile—the corresponding measurement results in Table 1 are marked a).
Calibration was carried out using unbranched alkan-2-ones (having 3 to 16 carbon atoms) with known logP values (determination of the logP values by the retention times using linear interpolation between two successive alkanones).

weeds [3] = assay: Pre-emergence test (herbicidal action); assay type: in vivo; conditions: soil sprayed 24 hours after sowing, rated after three weeks
Experimental: Pre-Emergence Test (Herbicidal Action)
as §1
Seeds of the test plants are sown in normal soil. After 24 hours, the soil is sprayed with the preparation of active compound such that the particular amount of active compound desired is applied per unit area. The concentration of active compound in the spray liquor is chosen such that the particular amount of active compound desired is applied in 1000 litres of water per hectare.
as §2

[4] = pH 2, HPLC, C18 reversed-phase column, read-out: logP (pH 2)

Molecule | logP a) (Table 1, Physical data) [2] | further results
1-(3-chloro-5-trifluoromethylpyridin-2-yl)-4-methoxy-6-cyclopropylpyrazolopyrimidin-4-one [Example 110] | (Ia) logP = 3.97^a) | herbicidal action against weeds (degree of damage) (weeds [1]): strong action against weeds; logP (pH 2) ([2]; pH 2): 3.97
O=c1[nH]cnc2c1cnn2-c1ncc(C(F)(F)F)cc1Cl [Example 1, 1-(3-chloro-5-trifluoromethylpyridin-2-yl)-1,5-dihydropyrazolo[3,4-d]pyrimidin-4-one] | – | melting point: 331 °C; chromatographic logP [2, 4]: 1.54
Cn1cnc2c(cnn2-c2ncc(C(F)(F)F)cc2Cl)c1=O [Example 2, 1-(3-chloro-5-trifluoromethylpyridin-2-yl)-5-methyl-1,5-dihydropyrazolo[3,4-d]pyrimidin-4-one] | – | melting point: 253 °C; chromatographic logP [2, 4]: 1.76
Cc1nc2c(cnn2-c2c(Cl)cc(C(F)(F)F)cc2Cl)c(=O)[nH]1 [Example 3, 1-(2,6-dichloro-4-trifluoromethylphenyl)-6-methyl-1,5-dihydropyrazolo[3,4-d]pyrimidin-4-one] | – | melting point: 300 °C; chromatographic logP [2, 4]: 2.25
Cc1nc2c(cnn2-c2c(Cl)cc(C(F)(F)F)cc2Cl)c(=O)n1C [Example 4, 1-(2,6-dichloro-4-trifluoromethylphenyl)-5,6-dimethyl-1,5-dihydropyrazolo[3,4-d]pyrimidin-4-one] | – | melting point: 195 °C; chromatographic logP [2, 4]: 2.69
Cc1nc2c(cnn2-c2ncc(C(F)(F)F)cc2Cl)c(=O)[nH]1 [Example 7] | (I) logP = 1.64^a) | –
Cc1nc2c(cnn2-c2ncc(C(F)(F)F)cc2Cl)c(=O)n1C [Example 8] | (I) logP = 1.97^a) | herbicidal action against weeds (degree of damage) (weeds [3]): strong action against weeds
O=c1[nH]c(C(Cl)Cl)nc2c1cnn2-c1ncc(C(F)(F)F)cc1Cl [Example 12] | (I) logP = 2.39^a) | –
CCc1nc2c(cnn2-c2ncc(C(F)(F)F)cc2Cl)c(=O)[nH]1 [Example 13] | (I) logP = 2.39^a) | –
CC(C)c1nc2c(cnn2-c2ncc(C(F)(F)F)cc2Cl)c(=O)[nH]1 [Example 17] | (I) logP = 2.36^a) | –
CC(C)c1nc2c(cnn2-c2ncc(C(F)(F)F)cc2Cl)c(=O)n1C [Example 18] | (I) logP = 2.89^a) | herbicidal action against weeds (degree of damage) (weeds [1]): strong action against weeds; herbicidal action against weeds (degree of damage) (weeds [3]): strong action against weeds
CCCc1nc2c(cnn2-c2ncc(C(F)(F)F)cc2Cl)c(=O)[nH]1 [Example 23] | (I) logP = 2.28^a) | –
CCCc1nc2c(cnn2-c2ncc(C(F)(F)F)cc2Cl)c(=O)n1C [Example 24] | (I) logP = 2.81^a) | herbicidal action against weeds (degree of damage) (weeds [1]): strong action against weeds; herbicidal action against weeds (degree of damage) (weeds [3]): strong action against weeds
CC(C)Cc1nc2c(cnn2-c2ncc(C(F)(F)F)cc2Cl)c(=O)[nH]1 [Example 25] | (I) logP = 2.52^a) | –
CC(C)(C)c1nc2c(cnn2-c2ncc(C(F)(F)F)cc2Cl)c(=O)[nH]1 [Example 26] | (I) logP = 2.74^a) | –
COc1nc(C(C)(C)C)nc2c1cnn2-c1ncc(C(F)(F)F)cc1Cl [Example 27] | (Ia) logP = 2.74^a) | herbicidal action against weeds (degree of damage) (weeds [1]): strong action against weeds; herbicidal action against weeds (degree of damage) (weeds [3]): strong action against weeds
O=c1[nH]c(C(F)(F)F)nc2c1cnn2-c1ncc(C(F)(F)F)cc1Cl [Example 37] | (I) logP = 2.42^a) | –
Cn1c(C(F)(F)F)nc2c(cnn2-c2ncc(C(F)(F)F)cc2Cl)c1=O [Example 38] | (I) logP = 3.11^a) | –
COc1nc(C(F)(F)F)nc2c1cnn2-c1ncc(C(F)(F)F)cc1Cl [Example 39] | (Ia) logP = 3.99^a) | herbicidal action against weeds (degree of damage) (weeds [1]): strong action against weeds
CCOC(=O)COc1nc(C(F)(F)F)nc2c1cnn2-c1ncc(C(F)(F)F)cc1Cl [Example 42] | (Ia) logP = 4.05^a) | –
O=c1[nH]c(C(F)(F)Cl)nc2c1cnn2-c1ncc(C(F)(F)F)cc1Cl [Example 43] | (I) logP = 2.53^a) | –
O=c1[nH]c(C(F)(F)C(F)(F)F)nc2c1cnn2-c1ncc(C(F)(F)F)cc1Cl [Example 44] | (I) logP = 2.84^a) | –
CCOC(=O)c1nc2c(cnn2-c2ncc(C(F)(F)F)cc2Cl)c(=O)n1C [Example 46] | (I) logP = 2.74^a) | –
CCn1c(C2CC2)nc2c(cnn2-c2ncc(C(F)(F)F)cc2Cl)c1=O [Example 50] | (I) logP = 2.96^a) | –

Molecule | logP a) (Table 1, Physical data) [2] | further results
CCOc1nc(C2CC2)nc2c1cnn2-c1ncc(C(F)(F)F)cc1Cl [Example 51] | (Ia) logP = 4.42^a) | –
CC(C)Oc1nc(C2CC2)nc2c1cnn2-c1ncc(C(F)(F)F)cc1Cl [Example 52] | (Ia) logP = 4.86^a) | –
C#CCn1c(C2CC2)nc2c(cnn2-c2ncc(C(F)(F)F)cc2Cl)c1=O [Example 56] | (I) logP = 2.95^a) | –
FC(F)Oc1nc(C2CC2)nc2c1cnn2-c1ncc(C(F)(F)F)cc1Cl [Example 57] | (Ia) logP = 4.24^a) | herbicidal action against weeds (degree of damage) (weeds [1]): strong action against weeds; herbicidal action against weeds (degree of damage) (weeds [3]): strong action against weeds
CCOC(=O)COc1nc(C2CC2)nc2c1cnn2-c1ncc(C(F)(F)F)cc1Cl [Example 58] | (Ia) logP = 3.88^a) | –
Cn1c(C2(F)CC2)nc2c(cnn2-c2ncc(C(F)(F)F)cc2Cl)c1=O [Example 59] | (I) logP = 2.82^a) | herbicidal action against weeds (degree of damage) (weeds [1]): strong action against weeds; herbicidal action against weeds (degree of damage) (weeds [3]): strong action against weeds
COc1nc(C2(F)CC2)nc2c1cnn2-c1ncc(C(F)(F)F)cc1Cl [Example 60] | (Ia) logP = 3.73^a) | herbicidal action against weeds (degree of damage) (weeds [1]): strong action against weeds; herbicidal action against weeds (degree of damage) (weeds [3]): strong action against weeds
O=c1[nH]c(C2CCC2)nc2c1cnn2-c1ncc(C(F)(F)F)cc1Cl [Example 63] | (I) logP = 2.46^a) | –
Cn1c(C2CCC2)nc2c(cnn2-c2ncc(C(F)(F)F)cc2Cl)c1=O [Example 64] | (I) logP = 3.03^a) | herbicidal action against weeds (degree of damage) (weeds [1]): strong action against weeds; herbicidal action against weeds (degree of damage) (weeds [3]): strong action against weeds
COc1nc(C(F)(F)F)nc2c1cnn2-c1ncc(Cl)cc1Cl [Example 72] | (Ia) logP = 3.76^a) | –
Cc1nc2c(cnn2-c2ccc(C(F)(F)F)cc2Cl)c(=O)n1C [Example 81] | (I) logP = 2.30^a) | –
CC(C)c1nc2c(cnn2-c2ccc(C(F)(F)F)cc2Cl)c(=O)n1C [Example 84] | (I) logP = 3.52^a) | –
Cc1nc2c(cnn2-c2nn(C)c(OC(F)F)c2Cl)c(=O)[nH]1 [Example 98] | (I) logP = 1.40^a)m.p. = 254 °C | –
Cc1nc2c(cnn2-c2nn(C)c(OC(F)F)c2Cl)c(=O)n1C [Example 99] | (I) logP = 1.68^a)m.p. = 199 °C | –
Cn1nc(-n2ncc3c(=O)[nH]c(C4CC4)nc32)cc1OC(F)F [Example 101] | (I) logP = 1.59^a) | –
Cn1nc(-n2ncc3c(=O)n(C)c(C4CC4)nc32)cc1OC(F)F [Example 102] | (I) logP = 1.90^a) | –
COc1nc(C2CC2)nc2c1cnn2-c1cc(OC(F)F)n(C)n1 [Example 103] | (Ia) logP = 3.02^a) | –
Cn1nc(-n2ncc3c(=O)[nH]c(C4CC4)nc32)c(Cl)c1OC(F)F [Example 106] | (I) logP = 1.85^a)m.p. = 210 °C | –
Cn1nc(-n2ncc3c(=O)n(C)c(C4CC4)nc32)c(Cl)c1OC(F)F [Example 107] | (I) logP = 2.21^a)m.p. = 220 °C | –
Cn1c(C2CC2)nc2c(cnn2-c2ncc(C(F)(F)F)cc2Cl)c1=O [Example 109, 1-(3-chloro-5-trifluoromethylpyridin-2-yl)-5-methyl-6-cyclopropyl-1,5-dihydropyrazolo[3,4-d]pyrimidin-4-one] | – | herbicidal action against weeds (degree of damage) (weeds [1]): strong action against weeds; herbicidal action against weeds (degree of damage) (weeds [3]): strong action against weeds; chromatographic logP [2, 4]: 2.61; chromatographic logP ([2]; reversed-phase HPLC column (C18); acidic range: 0.1% phosphoric acid, acetonitrile gradient; C18; 43° C.; read-out: logP a) (Table 1, Physical data)): 2.61
NC(=O)c1cnn(-c2ncc(Cl)cc2Cl)c1N [II-2] | – | logP a) (Table 2, Physical data) [2]: logP = 1.02^a)
CC(C)(C)C(=O)Nc1c(C(N)=O)cnn1-c1ncc(C(F)(F)F)cc1Cl [VI-2] | – | logP a) (Table 3, Physical data) [2]: logP = 2.20^a)
CC(C)(CCl)C(=O)Nc1c(C(N)=O)cnn1-c1ncc(C(F)(F)F)cc1Cl [VI-3] | – | logP a) (Table 3, Physical data) [2]: logP = 2.26^a)
